Reference: US20040229791A1, “Compositions and methods of modulating TGF-beta activity by fatty acids” (priority 2002, published 2004)

Molecular target: T1, TGF-β1-α2M* complex (Homo sapiens, UniProt P01023)
T1 construct: was purified from pooled citrate-treate human plasma; from tissue; host or cells: pooled citrate-treated human plasma
T1 sequence (P01023 24-1474): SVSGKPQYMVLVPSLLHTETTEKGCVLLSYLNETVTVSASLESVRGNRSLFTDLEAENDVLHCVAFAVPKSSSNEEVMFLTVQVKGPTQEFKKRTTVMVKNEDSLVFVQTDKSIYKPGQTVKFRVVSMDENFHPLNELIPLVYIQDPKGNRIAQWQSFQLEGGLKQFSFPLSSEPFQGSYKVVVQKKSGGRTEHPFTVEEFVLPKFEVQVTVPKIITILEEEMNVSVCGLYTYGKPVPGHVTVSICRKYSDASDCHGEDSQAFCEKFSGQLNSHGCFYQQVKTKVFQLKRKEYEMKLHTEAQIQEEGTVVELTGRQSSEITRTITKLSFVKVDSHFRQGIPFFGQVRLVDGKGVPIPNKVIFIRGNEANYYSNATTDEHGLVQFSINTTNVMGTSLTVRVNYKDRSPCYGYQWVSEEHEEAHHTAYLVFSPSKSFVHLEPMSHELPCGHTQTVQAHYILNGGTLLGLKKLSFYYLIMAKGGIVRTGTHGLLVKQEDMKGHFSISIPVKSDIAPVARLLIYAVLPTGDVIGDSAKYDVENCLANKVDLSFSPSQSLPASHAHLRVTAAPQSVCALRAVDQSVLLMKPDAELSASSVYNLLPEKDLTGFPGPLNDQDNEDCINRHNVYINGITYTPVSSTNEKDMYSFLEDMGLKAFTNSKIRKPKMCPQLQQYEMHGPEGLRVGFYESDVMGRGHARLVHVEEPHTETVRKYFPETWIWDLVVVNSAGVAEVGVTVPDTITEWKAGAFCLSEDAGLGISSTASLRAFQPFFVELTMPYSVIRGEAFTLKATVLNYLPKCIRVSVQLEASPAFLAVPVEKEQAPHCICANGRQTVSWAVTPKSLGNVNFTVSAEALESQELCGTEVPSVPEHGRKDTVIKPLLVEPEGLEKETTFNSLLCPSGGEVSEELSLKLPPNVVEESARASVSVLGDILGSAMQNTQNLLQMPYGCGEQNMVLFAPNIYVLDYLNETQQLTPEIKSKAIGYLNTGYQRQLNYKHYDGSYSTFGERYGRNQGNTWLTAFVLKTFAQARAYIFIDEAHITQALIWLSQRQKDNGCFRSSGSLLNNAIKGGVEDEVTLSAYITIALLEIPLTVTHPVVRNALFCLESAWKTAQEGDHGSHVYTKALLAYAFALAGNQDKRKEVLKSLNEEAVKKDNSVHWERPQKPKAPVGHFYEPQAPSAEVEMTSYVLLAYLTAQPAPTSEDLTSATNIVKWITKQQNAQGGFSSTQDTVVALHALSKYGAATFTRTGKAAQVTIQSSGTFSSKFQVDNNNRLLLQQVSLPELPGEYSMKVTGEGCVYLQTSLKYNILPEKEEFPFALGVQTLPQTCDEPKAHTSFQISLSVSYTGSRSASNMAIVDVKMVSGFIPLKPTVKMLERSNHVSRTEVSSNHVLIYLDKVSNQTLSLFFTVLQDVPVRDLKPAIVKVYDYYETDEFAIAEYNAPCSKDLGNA
Assay: Inhibition of 125I-TGF-β1 and α2M* complex formation (5% non-denaturing PAGE, autoradiography)
Format: binding
Details: for IC50: ~1 nM 125I-TGF-β1, 10 μg α2M* in 0.05 ml, 30 min room temperature, non-denaturing PAGE, read-out: IC50 for inhibiting complex formation between TGF-β1 and α2M*
Description: Saturated and unsaturated fatty acids are present in plasma and tissues (25,26). The effects of various concentrations of saturated fatty acids on the formation of complexes between ^125I-TGF ? β1 and ? 2M* were examined. ^125I-TGF- ? 1 (1 nM) was incubated μg/ml) in the presence of various concentrations of n-caprylic acid ([…]), lauric acid (12 carbon atoms), myristic acid (14 carbon atoms), palmitic acid (16 carbon atoms) and stearic acid (18 carbon atoms). After 30 min at room temperature, the reaction mixture was analyzed by 5% non-denaturing PAGE and autoradiography, a standard method form determining complex formation between TGF-β and α2M* (12). […] At 100 μM, it inhibited 20% of the complex formation between TGF ? β1 and α2M*. Esterification consistently abolished the inhibitory activities of the fatty acids.
Complex formation of ^125I-TGF-β and ? 2M*—The reaction mixture contained 10 μg of . α2M*, ˜1 nM of ^125I-TGF- ? 1, ^125I-TGF ? β2 or ^125I-TGF ? acids (dissolved in 100% ethanol) in 0.05 ml of 50 mM HEPES-NaOH buffer, pH 7.4. The final concentration of ethanol in the reaction mixture was 0.5%. These fatty acids and fatty acid derivatives were soluble under the experimental conditions. After 30 min at room temperature, the complex formation of ^125I-TGF- ? and. α2M* was determined by 5% non-denaturing polyacrylamide gel electrophoresis (PAGE) or by 7.5% SDS-PAGE following cross-linking by 0.6 mM DSS. After electrophoresis, the gel was stained with Coomassie blue and analyzed by autoradiography. The ^125I-TGF- ? - ? 2M* complex which co-migrated with free ? 2M* was quantified using a PhosphoImager (Fuji).

Row | IC50 [µM] | inhibitory activity on complex formation of 125I-TGF-β1 and α2M* | SMILES
1 | 6.6 ± 0.9 | – | CCCCCCCCCCCCCCCCCC(=O)O [stearic acid]
2 | – | inactive | CCCCC/C=C\C/C=C\C/C=C\C/C=C\CCCC(=O)OC [arachidonic acid methyl ester]
3 | 8.5 ± 1 | – | CCCCCCCCCCCCCCCC(=O)O [palmitic acid]
